pIC50: −log10 of the molar value.
biological target: T1, CDK1/Cyclin B (Homo sapiens, UniProt P06493); assay: Enzymatic assay for CDK1 (FRET based LANCE Ultra kinase assay); format: biochemical; settings: read-out: CDK1 enzymatic activity (IC50 range)
T1 construct: purchased Invitrogen PR4768C
Procedure, shortened: (§1)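 LANCE Ultra TR-FRET: ULight-MBP peptide (68 nM) with ATP at Km, […], 60 min at 23° C. EDTA plus Eu-anti-phospho-MBP added, another 60 min, then 665/615 nm emission read. Compounds tested as 8-dose 4-fold DMSO dilutions.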

T1 sequence (P06493 whole entry): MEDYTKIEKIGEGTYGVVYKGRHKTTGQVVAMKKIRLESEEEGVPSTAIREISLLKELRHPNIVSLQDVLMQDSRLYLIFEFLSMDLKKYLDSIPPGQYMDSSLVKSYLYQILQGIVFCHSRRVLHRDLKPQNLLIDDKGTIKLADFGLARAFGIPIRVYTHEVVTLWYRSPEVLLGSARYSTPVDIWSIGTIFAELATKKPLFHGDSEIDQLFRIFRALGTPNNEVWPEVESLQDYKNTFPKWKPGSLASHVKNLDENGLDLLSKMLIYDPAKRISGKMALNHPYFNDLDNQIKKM
T1 sequence (P14635 whole entry partner): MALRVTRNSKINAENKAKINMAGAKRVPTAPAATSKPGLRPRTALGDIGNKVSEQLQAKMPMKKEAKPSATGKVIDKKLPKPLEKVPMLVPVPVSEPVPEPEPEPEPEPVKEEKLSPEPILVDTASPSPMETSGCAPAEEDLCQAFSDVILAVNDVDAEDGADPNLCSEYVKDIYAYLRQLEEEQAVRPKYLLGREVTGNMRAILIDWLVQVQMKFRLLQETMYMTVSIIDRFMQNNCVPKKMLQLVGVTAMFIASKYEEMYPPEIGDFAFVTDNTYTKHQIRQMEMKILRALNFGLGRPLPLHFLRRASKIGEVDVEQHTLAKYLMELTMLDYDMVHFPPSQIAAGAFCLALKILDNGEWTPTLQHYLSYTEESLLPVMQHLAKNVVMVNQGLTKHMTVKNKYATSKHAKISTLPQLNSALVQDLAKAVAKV

| Compound | pIC50 |
| --- | --- |
| CC(C)c1cnn2c(NCc3cccc(Oc4ccc(Cl)c(NC(=O)CCCN(C)C)c4)c3)nc(N3CCC(N)CC3)nc12 [Compound 94] | 6.00 to 7.00 |
| CC(C)c1cnn2c(NCc3ccccc3-n3cccn3)nc(Nc3ccc(C4CCNCC4)cn3)nc12 [Compound 169] | < 6.00 |
| CC(C)c1cnn2c(NCc3cccc(N4CCN(C)CC4)c3)nc(N3CCC(N)CC3)nc12 [Compound 83] | < 6.00 |

Now from value to compound:

| pIC50 | Compound |
| --- | --- |
| 6.00 to 7.00 | CC(C)c1cnn2c(NCc3ccccc3Oc3ccc(NC(=O)CCCN(C)C)cc3)nc(N3CCC(N)CC3)nc12 [Compound 91] |
| 6.00 to 7.00 | NC1CCN(c2nc(NCc3ccccc3-n3cccn3)n3ncc(I)c3n2)CC1 [Compound 36] |
| < 6.00 | CC(C)c1cnn2c(NCc3ccccc3-c3ccc4ccccc4[n+]3[O-])nc(N3CCC(N)CC3)nc12 [Compound 81] |

biological target: T2, CDK2/Cyclin A (Homo sapiens, UniProt P24941); assay: Enzymatic assay for CDK2 (FRET based LANCE Ultra kinase assay); format: biochemical; settings: read-out: CDK2 enzymatic activity (IC50 range)
T2 construct: purchased Invitrogen PV6290
Procedure, shortened: as §1

| Compound | pIC50 |
| --- | --- |
| CC(C)c1cnn2c(NCc3cccc(Oc4ccc(Cl)c(NC(=O)CCCN(C)C)c4)c3)nc(N3CCC(N)CC3)nc12 [Compound 94] | 6.00 to 7.00 |
| CC(C)c1cnn2c(NCc3ccccc3-n3cccn3)nc(Nc3ccc(C4CCNCC4)cn3)nc12 [Compound 169] | < 6.00 |
| CC(C)c1cnn2c(NCc3cccc(N4CCN(C)CC4)c3)nc(N3CCC(N)CC3)nc12 [Compound 83] | 6.00 to 7.00 |

Now from value to compound:

| pIC50 | Compound |
| --- | --- |
| 6.00 to 7.00 | CC(C)c1cnn2c(NCc3ccccc3Oc3ccc(NC(=O)CCCN(C)C)cc3)nc(N3CCC(N)CC3)nc12 [Compound 91] |
| 6.00 to 7.00 | NC1CCN(c2nc(NCc3ccccc3-n3cccn3)n3ncc(I)c3n2)CC1 [Compound 36] |
| < 6.00 | CC(C)c1cnn2c(NCc3ccccc3-c3ccc4ccccc4[n+]3[O-])nc(N3CCC(N)CC3)nc12 [Compound 81] |

biological target: T3, CDK5/p25 (Homo sapiens, UniProt Q00535); assay: Enzymatic assay for CDK5 (FRET based LANCE Ultra kinase assay); format: biochemical; settings: read-out: CDK5 enzymatic activity (IC50 range)
T3 construct: purchased Invitrogen PR8543B
Procedure, shortened: as §1

T3 sequence (Q00535 whole entry): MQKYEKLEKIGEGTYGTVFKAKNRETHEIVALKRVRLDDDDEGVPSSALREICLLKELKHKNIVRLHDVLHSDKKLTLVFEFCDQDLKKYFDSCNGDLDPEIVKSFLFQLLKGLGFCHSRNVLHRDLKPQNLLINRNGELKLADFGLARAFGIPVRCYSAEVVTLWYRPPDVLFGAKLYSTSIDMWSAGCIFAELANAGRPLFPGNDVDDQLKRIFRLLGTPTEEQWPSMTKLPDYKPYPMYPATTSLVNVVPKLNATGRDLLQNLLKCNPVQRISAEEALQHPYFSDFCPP
T3 sequence (Q15078 99-307 partner limits assumed): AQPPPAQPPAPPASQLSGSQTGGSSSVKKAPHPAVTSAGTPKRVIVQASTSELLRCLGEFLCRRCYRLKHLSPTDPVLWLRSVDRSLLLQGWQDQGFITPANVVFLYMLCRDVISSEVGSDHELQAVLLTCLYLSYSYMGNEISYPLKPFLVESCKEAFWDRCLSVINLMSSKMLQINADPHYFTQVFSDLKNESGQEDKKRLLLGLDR

| Compound | pIC50 |
| --- | --- |
| CC(C)c1cnn2c(NCc3cccc(Oc4ccc(Cl)c(NC(=O)CCCN(C)C)c4)c3)nc(N3CCC(N)CC3)nc12 [Compound 94] | 6.00 to 7.00 |
| CC(C)c1cnn2c(NCc3ccccc3-n3cccn3)nc(Nc3ccc(C4CCNCC4)cn3)nc12 [Compound 169] | < 6.00 |
| CC(C)c1cnn2c(NCc3cccc(N4CCN(C)CC4)c3)nc(N3CCC(N)CC3)nc12 [Compound 83] | 6.00 to 7.00 |

Further lines, results first:

| pIC50 | Compound |
| --- | --- |
| 6.00 to 7.00 | CC(C)c1cnn2c(NCc3ccccc3Oc3ccc(NC(=O)CCCN(C)C)cc3)nc(N3CCC(N)CC3)nc12 [Compound 91] |
| > 7.00 | NC1CCN(c2nc(NCc3ccccc3-n3cccn3)n3ncc(I)c3n2)CC1 [Compound 36] |
| < 6.00 | CC(C)c1cnn2c(NCc3ccccc3-c3ccc4ccccc4[n+]3[O-])nc(N3CCC(N)CC3)nc12 [Compound 81] |

biological target: T4, CDK7/Cyclin H/MNAT1 (Homo sapiens, UniProt P50613); assay: Enzymatic assay for CDK7 (FRET based LANCE Ultra kinase assay); format: biochemical; settings: CDK7 over CDK1
T4 construct: purchased Invitrogen PR6749B
Procedure, shortened: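 LANCE Ultra TR-FRET kinase assay using a ULight-labeled peptide substrate and a Eu-labeled anti-phospho antibody, with ATP at its Km. Purified CDK/cyclin complex was added to compound after brief centrifugation.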

T4 sequence (P50613 whole entry): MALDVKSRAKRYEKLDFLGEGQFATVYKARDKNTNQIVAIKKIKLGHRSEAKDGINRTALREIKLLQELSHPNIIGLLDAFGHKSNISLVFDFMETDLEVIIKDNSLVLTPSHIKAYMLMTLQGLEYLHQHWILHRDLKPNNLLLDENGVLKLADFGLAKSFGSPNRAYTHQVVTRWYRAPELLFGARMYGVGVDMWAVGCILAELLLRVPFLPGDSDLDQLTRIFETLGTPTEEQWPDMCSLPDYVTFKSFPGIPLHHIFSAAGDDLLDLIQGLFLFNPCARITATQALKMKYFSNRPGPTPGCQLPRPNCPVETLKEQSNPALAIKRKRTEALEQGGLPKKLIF
T4 sequence (P51946 whole entry partner): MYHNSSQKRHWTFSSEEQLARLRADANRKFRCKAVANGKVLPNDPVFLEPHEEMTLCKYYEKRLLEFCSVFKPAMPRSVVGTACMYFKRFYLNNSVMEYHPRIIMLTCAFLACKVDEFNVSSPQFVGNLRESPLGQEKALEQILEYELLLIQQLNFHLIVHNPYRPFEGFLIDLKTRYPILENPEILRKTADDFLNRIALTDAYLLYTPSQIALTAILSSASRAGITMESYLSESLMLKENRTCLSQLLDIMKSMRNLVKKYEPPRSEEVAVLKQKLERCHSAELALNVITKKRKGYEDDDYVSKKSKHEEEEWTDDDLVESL
T4 sequence (P51948 whole entry partner): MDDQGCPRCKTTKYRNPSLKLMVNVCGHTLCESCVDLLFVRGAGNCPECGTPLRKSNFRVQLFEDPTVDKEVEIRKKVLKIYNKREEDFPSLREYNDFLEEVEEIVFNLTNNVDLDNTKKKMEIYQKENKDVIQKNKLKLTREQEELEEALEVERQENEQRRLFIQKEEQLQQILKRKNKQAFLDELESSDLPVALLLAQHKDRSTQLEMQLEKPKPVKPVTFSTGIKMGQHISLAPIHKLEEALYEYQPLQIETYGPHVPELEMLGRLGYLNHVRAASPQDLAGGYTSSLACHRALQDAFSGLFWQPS

| Compound | CDK1/CDK7: Selectivity of CDK7 inhibition over CDK1 inhibition |
| --- | --- |
| CC(C)c1cnn2c(NCc3cccc(Oc4ccc(Cl)c(NC(=O)CCCN(C)C)c4)c3)nc(N3CCC(N)CC3)nc12 [Compound 94] | A (A=greater than 200 fold) |
| NC1CCN(c2nc(NCc3ccccc3-n3cccn3)n3ncc(I)c3n2)CC1 [Compound 36] | B (B=less than 200 fold, but greater than 20 fold) |
| CC(C)c1cnn2c(NCc3ccccc3-n3cccn3)nc(Nc3ccc(C4CCNCC4)cn3)nc12 [Compound 169] | A (A=greater than 200 fold) |
| CC(C)c1cnn2c(NCc3cccc(N4CCN(C)CC4)c3)nc(N3CCC(N)CC3)nc12 [Compound 83] | A (A=greater than 200 fold) |

Now from value to compound:

| CDK1/CDK7: Selectivity of CDK7 inhibition over CDK1 inhibition | Compound |
| --- | --- |
| A (A=greater than 200 fold) | CC(C)c1cnn2c(NCc3ccccc3Oc3ccc(NC(=O)CCCN(C)C)cc3)nc(N3CCC(N)CC3)nc12 [Compound 91] |
| A (A=greater than 200 fold) | CC(C)c1cnn2c(NCc3ccccc3-c3ccc4ccccc4[n+]3[O-])nc(N3CCC(N)CC3)nc12 [Compound 81] |

same assay, conditions: CDK7 over CDK2

| Compound | CDK2/CDK7: Selectivity of CDK7 inhibition over CDK2 inhibition |
| --- | --- |
| CC(C)c1cnn2c(NCc3cccc(Oc4ccc(Cl)c(NC(=O)CCCN(C)C)c4)c3)nc(N3CCC(N)CC3)nc12 [Compound 94] | B (B=less than 200 fold, but greater than 20 fold) |
| CC(C)c1cnn2c(NCc3ccccc3Oc3ccc(NC(=O)CCCN(C)C)cc3)nc(N3CCC(N)CC3)nc12 [Compound 91] | B (B=less than 200 fold, but greater than 20 fold) |
| NC1CCN(c2nc(NCc3ccccc3-n3cccn3)n3ncc(I)c3n2)CC1 [Compound 36] | C (C=less than 20 fold) |
| CC(C)c1cnn2c(NCc3ccccc3-c3ccc4ccccc4[n+]3[O-])nc(N3CCC(N)CC3)nc12 [Compound 81] | A (A=greater than 200 fold) |
| CC(C)c1cnn2c(NCc3ccccc3-n3cccn3)nc(Nc3ccc(C4CCNCC4)cn3)nc12 [Compound 169] | B (B=less than 200 fold, but greater than 20 fold) |
| CC(C)c1cnn2c(NCc3cccc(N4CCN(C)CC4)c3)nc(N3CCC(N)CC3)nc12 [Compound 83] | A (A=greater than 200 fold) |

same assay, conditions: CDK7 over CDK5

| Compound | CDK5/CDK7: Selectivity of CDK7 inhibition over CDK5 inhibition |
| --- | --- |
| CC(C)c1cnn2c(NCc3cccc(Oc4ccc(Cl)c(NC(=O)CCCN(C)C)c4)c3)nc(N3CCC(N)CC3)nc12 [Compound 94] | B (B=less than 200 fold, but greater than 20 fold) |
| CC(C)c1cnn2c(NCc3ccccc3Oc3ccc(NC(=O)CCCN(C)C)cc3)nc(N3CCC(N)CC3)nc12 [Compound 91] | B (B=less than 200 fold, but greater than 20 fold) |
| NC1CCN(c2nc(NCc3ccccc3-n3cccn3)n3ncc(I)c3n2)CC1 [Compound 36] | C (C=less than 20 fold) |
| CC(C)c1cnn2c(NCc3ccccc3-c3ccc4ccccc4[n+]3[O-])nc(N3CCC(N)CC3)nc12 [Compound 81] | A (A=greater than 200 fold) |
| CC(C)c1cnn2c(NCc3ccccc3-n3cccn3)nc(Nc3ccc(C4CCNCC4)cn3)nc12 [Compound 169] | B (B=less than 200 fold, but greater than 20 fold) |
| CC(C)c1cnn2c(NCc3cccc(N4CCN(C)CC4)c3)nc(N3CCC(N)CC3)nc12 [Compound 83] | B (B=less than 200 fold, but greater than 20 fold) |

same assay, conditions: read-out: CDK7 enzymatic activity (IC50 range)

| Compound | pIC50 |
| --- | --- |
| CC(C)c1cnn2c(NCc3cccc(Oc4ccc(Cl)c(NC(=O)CCCN(C)C)c4)c3)nc(N3CCC(N)CC3)nc12 [Compound 94] | > 7.00 |
| CC(C)c1cnn2c(NCc3ccccc3-n3cccn3)nc(Nc3ccc(C4CCNCC4)cn3)nc12 [Compound 169] | > 7.00 |
| CC(C)c1cnn2c(NCc3cccc(N4CCN(C)CC4)c3)nc(N3CCC(N)CC3)nc12 [Compound 83] | > 7.00 |

Now from value to compound:

| pIC50 | Compound |
| --- | --- |
| > 7.00 | CC(C)c1cnn2c(NCc3ccccc3Oc3ccc(NC(=O)CCCN(C)C)cc3)nc(N3CCC(N)CC3)nc12 [Compound 91] |
| > 7.00 | NC1CCN(c2nc(NCc3ccccc3-n3cccn3)n3ncc(I)c3n2)CC1 [Compound 36] |
| > 7.00 | CC(C)c1cnn2c(NCc3ccccc3-c3ccc4ccccc4[n+]3[O-])nc(N3CCC(N)CC3)nc12 [Compound 81] |

system: MOLT-4; assay: Cellular MOLT-4 viability assay (CellTiter-Glo, 72 hours); format: cell-based; settings: Homo sapiens, MOLT4 viability assay
Description: All cell lines were routinely tested for mycoplasma.
The effect of the CDK7 inhibitor to inhibit the growth of target cancer cells was evaluated through the 72 hours time period of viability assay. Briefly, the candidate cell line ware plated in 96 well plate at the following density of cells respectively. […] DMSO solvent without compound served as a control and final DMSO concentration less than 0.1%. After 72 hours of incubation at 37° C., 5% CO2 incubator, cells were analyzed for the viability using the CellTiter-Glo Luminescent Cell Viability Assay (Promega, Cat #G7570). All viability assays were performed in duplicate and Luminescence was read using an Envision (Perkin Elmer, USA). Data was analyzed using XLfit software.

| Compound | pIC50 |
| --- | --- |
| CC(C)c1cnn2c(NCc3cccc(Oc4ccc(Cl)c(NC(=O)CCCN(C)C)c4)c3)nc(N3CCC(N)CC3)nc12 [Compound 94] | 5.00 to 6.00 |
| CC(C)c1cnn2c(NCc3ccccc3-n3cccn3)nc(Nc3ccc(C4CCNCC4)cn3)nc12 [Compound 169] | 5.00 to 6.00 |
| CC(C)c1cnn2c(NCc3cccc(N4CCN(C)CC4)c3)nc(N3CCC(N)CC3)nc12 [Compound 83] | 5.00 to 6.00 |

Continued, values first:

| pIC50 | Compound |
| --- | --- |
| 5.00 to 6.00 | CC(C)c1cnn2c(NCc3ccccc3Oc3ccc(NC(=O)CCCN(C)C)cc3)nc(N3CCC(N)CC3)nc12 [Compound 91] |
| 5.00 to 6.00 | NC1CCN(c2nc(NCc3ccccc3-n3cccn3)n3ncc(I)c3n2)CC1 [Compound 36] |
| < 5.00 | CC(C)c1cnn2c(NCc3ccccc3-c3ccc4ccccc4[n+]3[O-])nc(N3CCC(N)CC3)nc12 [Compound 81] |
